Data published in US20240299348A1, “MODULATORS OF TRPML, THEIR COMPOSITIONS AND METHODS OF USE” (Caraway Therapeutics, Inc., priority 2021, published 2024).

What was measured:
Format in all cases: cell-based
hTRPML1 = hTRPML1 (Homo sapiens, UniProt Q9GZU1); assay: TRPML1 fluorescent (Fluo-4) assay; set-up: Secondary Screening: Fluo-4: hTRPML1: EC50 (M); HEK-293 Trex cells expressing hTRPML1; conditions: activation; HEK-293 Trex cells expressing hTRPML1; read-out: Secondary Screening: Fluo-4: hTRPML1: EC50
Chain of hTRPML1 (Q9GZU1 whole entry L15A/L16A/L577A/L578A, form open): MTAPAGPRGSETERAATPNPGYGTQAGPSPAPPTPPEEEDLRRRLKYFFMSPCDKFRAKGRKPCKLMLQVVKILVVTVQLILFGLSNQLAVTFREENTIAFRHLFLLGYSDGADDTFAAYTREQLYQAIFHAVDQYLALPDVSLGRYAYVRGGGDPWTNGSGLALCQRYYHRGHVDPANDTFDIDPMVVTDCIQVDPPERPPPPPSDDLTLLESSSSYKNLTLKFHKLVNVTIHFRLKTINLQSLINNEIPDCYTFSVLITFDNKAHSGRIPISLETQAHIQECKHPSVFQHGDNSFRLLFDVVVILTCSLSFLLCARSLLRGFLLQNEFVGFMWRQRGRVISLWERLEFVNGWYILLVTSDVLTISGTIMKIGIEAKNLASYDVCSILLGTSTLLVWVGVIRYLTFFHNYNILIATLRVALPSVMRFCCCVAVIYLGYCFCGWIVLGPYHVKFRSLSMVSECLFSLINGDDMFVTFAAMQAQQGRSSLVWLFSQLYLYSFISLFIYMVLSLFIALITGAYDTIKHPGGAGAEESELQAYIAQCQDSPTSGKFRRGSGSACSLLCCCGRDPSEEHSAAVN
Procedure: HEK-293 Trex cells were stably transfected with a construct consisting of the human coding sequence for TRPML1 cloned into the […] plasmid pCDNA5 T/O. Mutations were introduced into the TRPML1 sequence to facilitate expression on the cell surface (Silvia Vergarajauregui, Rosa Puertollano Traffic. 2006 March; 7(3): 337-353). Briefly, the cells are cultured in 150 mm round tissue culture dishes containing 20 mL of media. The day before the assay the cells are rinsed with DPBS—Ca—Mg and then treated briefly with Trypsin-EDTA. The Trypsin-EDTA is diluted with growth media, and cells are counted. 38×10^6 cells are re-plated into 150 mm round tissue culture dishes in media containing 0.5 ug/mL doxycycline to induce expression of hTRPML1.
The day of the experiment cells are lifted from the plates as above and collected by centrifugation. The cells are then suspended in dye loading buffer consisting of Ringer's solution supplemented with 0.1% Pluronic Acid and 1 micromolar Fluo4-AM dye. Cells are loaded for ˜60 minutes in the dark with occasional mixing. The cells are collected by centrifugation, the loading media aspirated, and the cells resuspended in 25 mL Ringer's solution and incubated ˜60 minutes in the dark. The cells are again collected by centrifugation, rinsed in Ringer's Solution and resuspended to 0.2×10^6 cells/mL in modified Ringer's solution containing 10 mM calcium.
Compounds are dissolved to a concentration of 10 millimolar with DMSO. Compound plates are created by dispensing compounds into 384 well black wall clear bottom plates (Greiner 781091). Positive and negative controls are included on each plate. Typically, different amounts of each compound are tested ranging from 100 nanoMoles (20 micromolar final concentration) decreasing in half-log steps to 31 picoMoles (6 nanomolar final concentration). Each concentration is typically tested in triplicate.
50 microliters of dye-loaded cells are dispensed into each well of the compound assay plate created above. The fluorescence in each well is then determined with an excitation wavelength of 480 nm and an emission wavelength of 540 nm using either a Molecular Devices SpectraMax multimode plate reader or a Hamamatsu FDSS/uCell plate imager.
The resulting fluorescence for each well is exported as an ascii file and loaded into our LIMS for analysis. The percent activity of each compound at each concentration is determined by comparison to the positive and negative control wells included in each plate.
(§1) EC50 values were calculated using a non-linear regression of Prism.

hTRPML2 = molecular target: T1, hTRPML2 (Homo sapiens, UniProt Q8IZK6); assay: TRPML2 fluorescent (Fluo-4) assay; conditions: activation; read-out: Secondary Screening: Fluo-4: hTRPML2: EC50
T1 construct: expressed in transfected cells; host or cells: HEK-293 Trex (by analogy, 'performed as above')
T1 sequence (Q8IZK6 1-566): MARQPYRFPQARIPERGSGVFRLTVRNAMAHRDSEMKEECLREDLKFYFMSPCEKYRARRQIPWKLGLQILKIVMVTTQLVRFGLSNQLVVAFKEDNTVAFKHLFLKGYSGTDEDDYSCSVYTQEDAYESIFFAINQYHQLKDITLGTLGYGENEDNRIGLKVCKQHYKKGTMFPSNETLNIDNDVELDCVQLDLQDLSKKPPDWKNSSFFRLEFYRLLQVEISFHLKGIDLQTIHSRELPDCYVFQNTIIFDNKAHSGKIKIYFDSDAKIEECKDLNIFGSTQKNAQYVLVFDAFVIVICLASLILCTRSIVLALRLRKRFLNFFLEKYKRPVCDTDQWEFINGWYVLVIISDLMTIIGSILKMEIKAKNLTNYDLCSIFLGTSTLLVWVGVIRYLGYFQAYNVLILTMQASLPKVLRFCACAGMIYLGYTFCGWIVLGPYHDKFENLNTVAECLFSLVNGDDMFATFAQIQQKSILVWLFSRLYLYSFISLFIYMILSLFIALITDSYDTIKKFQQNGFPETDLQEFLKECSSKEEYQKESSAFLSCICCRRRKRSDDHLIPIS
Procedure: (§2) Assays for TRPML2 and TRPML3 were performed as above for TRPML1, by substituting the appropriate TRPML2 or TRPML3 subtype for the TRPML1.
as §1

hTRPML3 = molecular target: T2, hTRPML3 (Homo sapiens, UniProt Q8TDD5); assay: TRPML3 fluorescent (Fluo-4) assay; conditions: activation; read-out: Secondary Screening: Fluo-4: hTRPML3: EC50
T2 construct: expressed in transfected cells; host or cells: HEK-293 Trex (by analogy, 'performed as above')
T2 sequence (Q8TDD5 1-553): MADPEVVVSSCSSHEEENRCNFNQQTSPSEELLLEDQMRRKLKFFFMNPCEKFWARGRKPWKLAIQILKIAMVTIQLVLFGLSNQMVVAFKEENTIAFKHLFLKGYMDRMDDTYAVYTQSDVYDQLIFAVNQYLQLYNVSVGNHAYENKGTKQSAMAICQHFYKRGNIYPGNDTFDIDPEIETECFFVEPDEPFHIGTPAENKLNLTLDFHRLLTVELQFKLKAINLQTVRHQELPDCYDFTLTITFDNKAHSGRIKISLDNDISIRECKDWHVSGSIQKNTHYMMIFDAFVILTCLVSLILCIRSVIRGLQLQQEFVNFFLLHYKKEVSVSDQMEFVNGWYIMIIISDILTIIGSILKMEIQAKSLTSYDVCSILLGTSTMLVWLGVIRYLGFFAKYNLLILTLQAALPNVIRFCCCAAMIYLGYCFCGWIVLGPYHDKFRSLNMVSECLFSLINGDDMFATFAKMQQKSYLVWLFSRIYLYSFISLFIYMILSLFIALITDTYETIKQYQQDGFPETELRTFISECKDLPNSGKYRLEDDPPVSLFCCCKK
Procedure: as §2, §1

EC50 (hTRPML1) | EC50 (hTRPML2) | EC50 (hTRPML3) | SMILES
< 300 nM | > 5 µM | – | CN([C@H]1CCN(c2ccc(Cl)cc2F)C1)[C@H]1CCCC[C@@H]1NS(=O)(=O)c1ccc(S(=O)(=O)N(C)C)cc1 (stereo in doubt) [Compound 119, trans-N^1-(2-(((S)-1-(4-chloro-2-fluorophenyl)-pyrrolidin-3-yl)(methyl)-amino)cyclohexyl)-N^4,N^4-dimethylbenzene-1,4-disulfonamide]
300 to 1000 nM | – | – | CN(C)S(=O)(=O)c1ccc(S(=O)(=O)Nc2ccccc2N2CCC3(CN(c4ccc(Cl)cc4F)C3)C2)cc1 [Compound 102, N^1-(2-(2-(4-chloro-2-fluorophenyl)-2,6-diazaspiro[3.4]octan-6-yl)phenyl)-N^4,N^4-dimethylbenzene-1,4-disulfonamide]
1000 to 5000 nM | – | 300 to 1000 nM | CN(C)S(=O)(=O)c1ccc(S(=O)(=O)N[C@H]2CCCC[C@H]2N2CCN(c3ccc(Cl)cc3F)CC2)cc1 (stereo in doubt) [Compound 109, N^1-((1S,2R)-2-(4-(4-Chloro-2-fluorophenyl)piperazin-1-yl)cyclohexyl)-N^4,N^4-dimethylbenzene-1,4-disulfonamide]
300 to 1000 nM | 1 to 5 µM | 300 to 1000 nM | CN(c1ccccc1NS(=O)(=O)c1ccc(S(=O)(=O)N(C)C)cc1)C1CCN(C(=O)OC2CCCCC2)C1 (stereo not shown) [Compound 124, cyclohexyl 3-((2-((4-(N,N-dimethylsulfamoyl)phenyl)sulfonamido)phenyl)(methyl)amino)pyrrolidine-1-carboxylate]
1000 to 5000 nM | – | 300 to 1000 nM | CN(c1ccccc1NS(=O)(=O)c1ccc(S(=O)(=O)N(C)C)cc1)C1CCN(C(=O)OC(C)(C)C)C1 (stereo not shown) [Compound 114, tert-butyl 3-((2-((4-(N,N-dimethylsulfamoyl)phenyl)sulfonamido)phenyl)(methyl)amino)pyrrolidine-1-carboxylate]
300 to 1000 nM | – | < 300 nM | CN(c1ccccc1NS(=O)(=O)c1ccc(S(=O)(=O)N(C)C)cc1)C1CCN(c2ccccc2F)C1 (stereo not shown) [Compound 112, N^1-(2-((1-(2-Fluorophen-yl)pyrrolidin-3-yl)(meth-yl)amino)phenyl)-N^4,N^4-dimethylbenzene-1,4-disulfonamide]
300 to 1000 nM | – | – | CN(C)S(=O)(=O)c1ccc(S(=O)(=O)Nc2ccccc2N2C[C@H]3C[C@@H]2CN3c2ccc(Cl)cc2F)cc1 [Compound 107, N^1-(2-((1R,4R)-5-(4-chloro-2-fluorophenyl)-2,5-diazabicyclo[2.2.1]heptan-2-yl)phenyl)-N^4,N^4-dimethylbenzene-1,4-disulfonamide]
300 to 1000 nM | – | < 300 nM | Cc1ccc(S(=O)(=O)N[C@H]2CCCC[C@@H]2N2CCN(c3ccc(Cl)cc3F)CC2)cc1 (relative stereo) [Compound 117, trans-N-(2-(4-(4-chloro-2-fluoro-phenyl)piperazin-1-yl)cyclohexyl)-4-methylbenzene-sulfonamide]
< 300 nM | – | – | CN(c1ccc(Cl)cc1F)C1CCN(c2ccccc2NS(=O)(=O)c2ccc(S(=O)(=O)N(C)C)cc2)C1 (stereo not shown) [Compound 104, N^1-(2-(3-((4-chloro-2-fluorophenyl)(methyl)amino)pyrrolidin-1-yl)phenyl)-N^4,N^4-dimethylbenzene-1,4-disulfonamide]

Second part, the compound before the results:

SMILES | EC50 (hTRPML1) | EC50 (hTRPML2) | EC50 (hTRPML3)
CN(c1ccccc1NS(=O)(=O)c1ccc(S(=O)(=O)N(C)C)cc1)[C@H]1CCN(c2ccc(Cl)cc2F)C1 [Compound 110, (S)-N^1-(2-((1-(4-chloro-2-fluorophenyl)pyrrolidin-3-yl)(methyl)amino)phenyl)-N^4,N^4-dimethylbenzene-1,4-disulfonamide] | < 300 nM | – | < 300 nM
CN(C)S(=O)(=O)c1ccc(S(=O)(=O)Cc2ccccc2N2CCN(c3ccc(Cl)cc3F)CC2)cc1 [Compound 106, 4-(2-(4-(4-Chloro-2-fluorophenyl)piperazin-1-yl)benzylsulfonyl)-N,N-dimethylbenzenesulfonamide] | < 300 nM | – | –
CN(C)S(=O)(=O)c1ccc(S(=O)(=O)N[C@H]2CCCC[C@@H]2N2CCN(c3ccc(Cl)cc3F)CC2)cc1 [Compound 105, N^1-((1S,2S)-2-(4-(4-chloro-2-fluorophenyl)piperazin-1-yl)cyclohexyl)-N^4,N^4-dimethylbenzene-1,4-disulfonamide] | 300 to 1000 nM | – | –
CN(C)S(=O)(=O)c1ccc(S(=O)(=O)Nc2ccccc2N2CCN(C34CC(C3)C4)CC2)cc1 [Compound 115, N^1-(2-(4-(bicyclo[1.1.1]pentan-1-yl)piperazin-1-yl)phenyl)-N^4,N^4-dimethylbenzene-1,4-disulfonamide] | 1000 to 5000 nM | – | 300 to 1000 nM
CN(C)S(=O)(=O)c1ccc(S(=O)(=O)N[C@H]2CCCC[C@@H]2N2CCN(c3ccccc3F)CC2)cc1 (relative stereo) [Compound 116, trans-N^1-(2-(4-(2-fluorophenyl)piperazin-1-yl)cyclohexyl)-N^4,N^4-dimethylbenzene-1,4-disulfonamide] | 1000 to 5000 nM | – | 300 to 1000 nM
CN(C)S(=O)(=O)c1ccc(S(=O)(=O)Nc2ccccc2N2CCC3(CCN(c4ccc(Cl)cc4F)C3)C2)cc1 (stereo not shown) [Compound 103, N^1-(2-(7-(4-chloro-2-fluorophenyl)-2,7-diazaspiro[4.4]nonan-2-yl)phenyl)-N^4,N^4-dimethylbenzene-1,4-disulfonamide] | 300 to 1000 nM | – | –
CN(C)S(=O)(=O)c1ccc(S(=O)(=O)Nc2ccccc2C2CCN(c3ccc(Cl)cc3F)CC2)cc1 [Compound 108, N^1-(2-(1-(4-chloro-2-fluorophenyl)piperidin-4-yl)phenyl)-N^4,N^4-dimethylbenzene-1,4-disulfonamide] | 1000 to 5000 nM | – | 300 to 1000 nM
CN(c1ccccc1NS(=O)(=O)c1ccc(S(=O)(=O)N(C)C)cc1)[C@@H]1CCN(c2ccc(Cl)cc2F)C1 [Compound 111, (R)-N^1-(2-((1-(4-chloro-2-fluorophenyl)pyrrolidin-3-yl)(methyl)amino)phenyl)-N^4,N^4-dimethylbenzene-1,4-disulfonamide] | 300 to 1000 nM | – | < 300 nM
CN(C1CCCC[C@@H]1NS(=O)(=O)c1ccc(S(=O)(=O)N(C)C)cc1)[C@@H]1CCN(c2ccc(Cl)cc2F)C1 (stereo partly drawn) [Compound 118, trans-N^1-(2-(((R)-1-(4-Chloro-2-fluorophenyl)pyrrolidin-3-yl)(methyl)amino)cyclohexyl)-N^4,N^4-dimethylbenzene-1,4-disulfonamide] | < 300 nM | > 5 µM | –
